From patent publication US8362064B2, “Sulfonamide compounds for the treatment of respiratory disorders” (Pulmagen Theraputics (Inflammation) Limited, priority 2008, dated 2013)
Where two headings read alike, the source gives them in different places. Marks after values point to notes of the source that are not given here.

Assays:
human PPARγ = molecular target: T1, human PPARγ (Homo sapiens, UniProt P37231); assay: Human PPAR gamma agonist activity, GAL4-luciferase transactivation in transfected HEK-293 cells; type: cell-based; conditions: fold increase in gene transactivation (luciferase), 18 hours incubation, classes at 10 μM or 1 μM
T1 construct: expressed in transfected cells; host or cells: HEK-293 (Human Embryonic Kidney) cells
T1 sequence (P37231 1-505): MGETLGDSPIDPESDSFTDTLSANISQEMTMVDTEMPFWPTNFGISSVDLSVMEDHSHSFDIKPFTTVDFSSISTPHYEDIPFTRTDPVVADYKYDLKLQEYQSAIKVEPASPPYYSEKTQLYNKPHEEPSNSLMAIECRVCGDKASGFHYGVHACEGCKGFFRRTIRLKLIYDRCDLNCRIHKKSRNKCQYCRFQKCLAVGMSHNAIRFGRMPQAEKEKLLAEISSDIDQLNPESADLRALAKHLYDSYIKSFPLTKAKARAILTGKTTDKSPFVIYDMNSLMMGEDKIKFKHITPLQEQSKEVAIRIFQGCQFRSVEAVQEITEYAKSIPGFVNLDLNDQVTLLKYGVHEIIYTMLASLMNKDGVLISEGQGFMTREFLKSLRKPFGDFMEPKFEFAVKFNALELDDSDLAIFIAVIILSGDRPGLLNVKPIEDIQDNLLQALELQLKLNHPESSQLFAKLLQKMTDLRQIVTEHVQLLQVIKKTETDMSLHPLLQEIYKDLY
Experimental: HEK-293 (Human Embryonic Kidney) cells were seeded at a density of 2.8×10^5 cells/well in a 6 well plate in DMEM +10% delipidated FBS medium and incubated at 37° C., 5% CO2. At 70-80% confluency cells were transfected with human pCDNA3.1E˜PPARγ+pGL2˜GAL4x5˜Luc+pADV plasmids for 3 hours (ratio 2:0.25:1.25 μg/well). The transfection medium was then replaced with fresh medium and cells were incubated for 48 hours.
Varying final concentrations of compounds (vehicle=0.1% DMSO) of the invention were prepared in medium (50 μl/well) and added to the wells in a 96 well plate. Transfected cells were harvested and pelleted by centrifugation. The cell pellet was resuspended in medium and cells counted. 10,000 cells/well were added to the 96 well plate containing compounds of the invention and incubated for 18 hours. Luminescence produced following agonism of the PPAR gamma receptor was determined using Packard luciferase substrate reagent (100 μl/well). Light emission was quantified by counting SPC mode using a Top Count. Fold activation was calculated using the following formula: […]
All compounds show activity as PPAR gamma agonists at 30 μM. Key for relative activity: • *<8 fold increase in gene transactivation with 10 μM • **>8 fold increase in gene transactivation with 10 μM • ***>8 fold increase in gene transactivation with 1 μM.

[1] = rat, cited from earlier work
[2] = tested on: TS induced BAL neutrophil influx; assay: Pre-clinical mouse model of COPD inflammation (tobacco smoke induced pulmonary inflammation), BAL neutrophil counts; type: in vivo; conditions: mice; for Inhibition of TS induced BAL neutrophil influx: BAL 24 h after final TS; for TS induced influx of neutrophils in the BAL (in words): administered by a surrogate route for inhalation (intra-nasal)
Experimental: Protocols for the exposure of mice to TS, obtaining bronchoalveolar lavage (BAL), preparation of cytospin slides for differential cell counts are as outlined below.
In this exposure protocol, mice were exposed in groups of 5 in individual clear polycarbonate chambers (27 cm×16 cm×12 cm). The TS from the cigarettes was allowed to enter the exposure chambers at a flow rate of 100 mL/min. In order to minimize any potential problems caused by repeated exposure to a high level of TS (6 cigarettes), the exposure of the mice to TS was increased gradually over the exposure period to a maximum of 6 cigarettes. The exposure schedule used for 4 days was as follows:
A further group of mice was exposed to air on a daily basis for an equivalent length of time as controls (no TS exposure).
Bronchoalveolar lavage was performed as follows: the trachea was cannulated using a Portex nylon intravenous cannula (pink luer fitting) shortened to approximately 8 mm. Phosphate buffered saline (PBS) was used as the lavage fluid. A volume of 0.4 mL was gently instilled and withdrawn 3 times using a 1 mL syringe and then placed in an Eppendorf tube and kept on ice prior to subsequent determinations.
Lavage fluid was separated from cells by centrifugation and the supernatant decanted and frozen for subsequent analysis. The cell pellet was re-suspended in a known volume of PBS and total cell numbers calculated by counting a stained (Turks stain) aliquot under a microscope using a haemocytometer.
The residual cell pellet was diluted to approximately 10^5 cells per mL. A volume of 500 μL was placed in the funnel of a cytospin slide and centrifuged for 8 min at 800 rpm. The slide was air dried and stained using ‘Kwik-Diff’ solutions (Shandon) as per the proprietary instructions. When dried and cover-slipped, differential cells were counted using light microscopy. Up to 400 cells were counted by unbiased operator using light microscopy. Cells were differentiated using standard morphometric techniques.
Mice were dosed intra-nasally (surrogate for oral inhalation) with vehicle (0.2% tween 80 in saline), Example 1 (0.1 mg/kg), Example 10 (0.1 mg/kg), Example 10 (0.03 mg/kg), or Example 10 (0.01 mg/kg), at 3 hours prior to tobacco smoke exposure each day. The control group of mice received vehicle 3 hrs prior to being exposed to air daily for a maximum of 50 minutes per day. BAL was performed 24 h following the final TS exposure.
In a separate experiment, mice were dosed intra-nasally (surrogate for oral inhalation) with either vehicle (0.2% tween 80 in saline), Example 7 (0.1 mg/kg), Compound 7 (0.03 mg/kg), Example 15 (0.1 mg/kg), or Example 15 (0.03 mg/kg), 1 hour prior to tobacco smoke exposure each day. The control group of mice received vehicle 1 hr prior to being exposed to air daily for a maximum of 50 minutes per day. BAL was performed 24 h following the final TS exposure.
All results are presented as individual data points for each animal and the mean value was calculated for each group. Since tests for normality were positive the data was subjected to a one way analysis of variance test (ANOVA), followed by a Bonferroni correction for multiple comparisons in order to test for significance between treatment groups. A “p” value of <0.05 was considered to be statistically significant. Percentage inhibitions were automatically calculated within the Excel spreadsheets for the cell data using the formula below:
[formula] Inhibition data for other parameters were calculated manually using the above formula.

[3] = In vivo pharmacokinetic study, plasma AUC after oral and i.v. dosing; set-up: species or system male Wistar rats; conditions: for plasma AUC following i.v. dosing (in words) / oral bioavailability (in words) / AUC: rat; for oral bioavailability (in words): oral vs i.v. plasma AUC; for AUC: plasma
Experimental: The suitability of the compounds exemplified in Examples 7, 10 and 15 above for inhalation for the treatment of lung diseases was examined by standard in vivo pharmacokinetic studies using male Wistar rats as known in the art. […] A single 1 mg/kg dose of Example 7, Example 10 and Example 15 was administered in 10% DMSO, 10% Cremophor ELP, 10% PEG 400, 10% EtOH and 60% Milli Q Water by the intravenous (IV) route and plasma samples taken 15 minutes, 30 minutes, 1 hour, 2 hours, 3 hours, 5 hours, 8 hours, 10 hours and 24 hours. Concentrations of Example 7, Example 10 and Example 15 in the various plasma samples were determined using standard analytical procedures.
Standard pharmacokinetic parameters following IV or oral dosing were calculated from the plasma concentration data, including Area under the curve (AUC), maximum plasma concentration (Cmax), time of maximum plasma concentration (Tmax), Elimination time (Kel) and plasma half-life (T½).
Compounds suitable for inhalation for the treatment of lung diseases have low plasma AUC following i.v. dosing indicating reduced likelihood of systemic side effects. Compounds suitable for inhalation for the treatment of lung diseases also have low oral bioavailability indicated by a much lower plasma AUC following oral dosing as that achieved by i.v. dosing. Low oral bioavailability leads to only a small fraction of the swallowed drug following inhalation being absorbed into the plasma, further reducing the likelihood of systemic side effects.

[4] = 0.1 mg/kg intra-nasally 3 hours prior to TS exposure each day for 4 days
[5] = iv, male Wistar rats, single 1 mg/kg i.v. dose, read-out: Plasma AUC following 1 mg/kg i.v. dose
[6] = 0.03 mg/kg intra-nasally 1 hour prior to TS exposure each day for 4 days
[7] = 0.1 mg/kg intra-nasally 1 hour prior to TS exposure each day for 4 days
[8] = male Wistar rats, derived from 5 mg/kg oral dose PK data, read-out: Plasma AUC following 1 mg/kg oral dose

SMILES: O=S(=O)(Nc1ccc(Oc2cnn(-c3ccc(Cl)cc3)c2)c(Cl)c1)c1ccc(Cl)cc1Cl [Example 6]
- PPARγ agonist activity (human PPARγ): *** (>8 fold increase in gene transactivation with 1 μM)

SMILES: CN(CCOc1ccc(CC2SC(=O)NC2=O)cc1)c1ccccn1 (stereo not shown) [Rosiglitazone]
- plasma AUC following an i.v. dose (in words) ([1]; i.v.): high
- oral bioavailability (in words) ([1]; oral vs i.v. plasma AUC): high
- Plasma AUC following 1 mg/kg i.v. dose ([1]; FDA Pharmacology review data, derived from 0.4 mg/kg i.v. dose PK data): 13.75*** μg*hr/ml
- Plasma AUC following 1 mg/kg oral dose ([1]; FDA Pharmacology review data, derived from 0.4 mg/kg oral dose PK data): 14.28*** μg*hr/ml

SMILES: Cc1ccc(-n2cc(Oc3ccc(NS(=O)(=O)c4ccc(C)cc4)cc3)cn2)cc1 [Example 11]
- PPARγ agonist activity (human PPARγ): * (<8 fold increase in gene transactivation with 10 μM)

SMILES: O=S(=O)(Nc1ccc(Oc2cnn(-c3ccc(F)cc3)c2)c(Cl)c1)c1ccccc1 [Example 12]
- PPARγ agonist activity (human PPARγ): * (<8 fold increase in gene transactivation with 10 μM)

SMILES: O=S(=O)(Nc1cc(Cl)c(Oc2cnn(-c3ccc(F)cc3)c2)c(Cl)c1)c1ccc(Cl)cc1Cl [Example 4]
- PPARγ agonist activity (human PPARγ): *** (>8 fold increase in gene transactivation with 1 μM)

SMILES: Cc1ccc(S(=O)(=O)Nc2ccc(Oc3cnn(-c4ccc(C)cc4C)c3)cc2)cc1 [Example 14]
- PPARγ agonist activity (human PPARγ): * (<8 fold increase in gene transactivation with 10 μM)

SMILES: Cc1cc(NS(=O)(=O)c2ccc(Cl)cc2Cl)ccc1Oc1cnn(-c2ccc(F)cc2)c1 [Example 9]
- PPARγ agonist activity (human PPARγ): *** (>8 fold increase in gene transactivation with 1 μM)

SMILES: Cc1ccc(-n2cc(Oc3ccc(NS(=O)(=O)c4ccc(Cl)cc4Cl)cc3)cn2)c(C)c1 [Example 10]
- PPARγ agonist activity (human PPARγ): *** (>8 fold increase in gene transactivation with 1 μM)
- Inhibition of TS induced BAL neutrophil influx ([2]; 0.01 mg/kg intra-nasally 3 hours prior to TS exposure each day for 4 days): 42%
- Inhibition of TS induced BAL neutrophil influx ([2]; 0.03 mg/kg intra-nasally 3 hours prior to TS exposure each day for 4 days): 50%
- Inhibition of TS induced BAL neutrophil influx [2, 4]: 72%
- TS induced influx of neutrophils in the BAL (in words) [2]: significantly inhibit
- Plasma AUC following 1 mg/kg oral dose ([3]; male Wistar rats, oral gavage (5 mg/kg given), limit of detection was 5 ng/ml): None
- plasma AUC following i.v. dosing (in words) [3]: low
- oral bioavailability (in words) [3]: low
- AUC [3, 5]: 210 ± 60 ng·h/mL

SMILES: Cc1ccc(-n2cc(Oc3ccc(NS(=O)(=O)c4ccc(Cl)cc4Cl)cc3)cn2)cc1 [Example 1, 2,4-dichloro-N-[4-(1-p-tolyl-1H-pyrazol-4-yloxy)-phenyl]benzene sulfonamide]
- PPARγ agonist activity (human PPARγ): *** (>8 fold increase in gene transactivation with 1 μM)
- melting point: 152 to 153 °C
- Inhibition of TS induced BAL neutrophil influx [2, 4]: 72%
- TS induced influx of neutrophils in the BAL (in words) [2]: significantly inhibit

SMILES: Cc1ccc(S(=O)(=O)Nc2ccc(Oc3cnn(-c4ccc(F)cc4)c3)c(Cl)c2)cc1 [Example 8]
- PPARγ agonist activity (human PPARγ): ** (>8 fold increase in gene transactivation with 10 μM)

SMILES: Cc1ccc(S(=O)(=O)Nc2ccc(Oc3cnn(-c4ccc(C)cc4C)c3)c(Cl)c2)cc1 [Example 15]
- PPARγ agonist activity (human PPARγ): ** (>8 fold increase in gene transactivation with 10 μM)
- Inhibition of TS induced BAL neutrophil influx [2, 6]: 66%
- Inhibition of TS induced BAL neutrophil influx [2, 7]: 69%
- TS induced influx of neutrophils in the BAL (in words) [2]: significantly inhibit
- plasma AUC following i.v. dosing (in words) [3]: low
- oral bioavailability (in words) [3]: low
- AUC [3, 5]: 170 ± 60 ng·h/mL
- AUC [3, 8]: 1 ± 2 ng·h/mL

SMILES: O=S(=O)(Nc1ccc(Oc2cnn(-c3ccc(F)cc3)c2)c(Cl)c1)c1ccc(Cl)cc1Cl [Example 5]
- PPARγ agonist activity (human PPARγ): *** (>8 fold increase in gene transactivation with 1 μM)

SMILES: O=S(=O)(Nc1ccc(Oc2cnn(-c3ccccc3)c2)c(Cl)c1)c1ccc(Cl)cc1Cl [Example 13]
- PPARγ agonist activity (human PPARγ): *** (>8 fold increase in gene transactivation with 1 μM)

SMILES: O=S(=O)(Nc1ccc(Oc2cnn(-c3ccc(F)c(Cl)c3)c2)c(Cl)c1)c1ccc(Cl)cc1Cl [Example 7]
- PPARγ agonist activity (human PPARγ): ** (>8 fold increase in gene transactivation with 10 μM)
- Inhibition of TS induced BAL neutrophil influx [2, 6]: 37%
- Inhibition of TS induced BAL neutrophil influx [2, 7]: 64%
- TS induced influx of neutrophils in the BAL (in words) [2]: significantly inhibit
- plasma AUC following i.v. dosing (in words) [3]: low
- oral bioavailability (in words) [3]: low
- AUC [3, 5]: 1080 ± 240 ng·h/mL
- AUC [3, 8]: 40 ± 8 ng·h/mL

SMILES: O=S(=O)(Nc1cc(Cl)c(Oc2cnn(-c3ccc(F)cc3F)c2)c(Cl)c1)c1ccc(Cl)cc1Cl [Example 3]
- PPARγ agonist activity (human PPARγ): *** (>8 fold increase in gene transactivation with 1 μM)
